# Test results reported in PubChem BioAssay (NCI).
# Values joined by “and” are separate entries in the source; they are usually repeats but may differ in a detail not shown here. Identical values can stand only once.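 Test compounds were applied to cells in 96-well plates for 48 hours at 5 doses. Abbreviation: GI50, concentration required for 50% inhibition of growth. TGI is the concentration that stops growth completely.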
# Experiments:
# Assay in all cases: NCI-60 cell line screen, 48 h
# [1] = test system: SF-295 CNS
# [2] = test system: LOX IMVI melanoma
# [3] = test system: A549 NSCLC
# [4] = test system: HL-60(TB) leukemia
# [5] = test system: SK-MEL-2 melanoma
# [6] = test system: KM12 colon
# [7] = test system: SNB-19 CNS
# [8] = test system: SNB-75 CNS
# [9] = test system: SR leukemia
# [10] = test system: MOLT-4 leukemia
Compound,TGI [1],TGI [2],TGI [3] [µM],TGI [4] [µM],TGI [5],TGI [6],TGI [7] [µM],TGI [8],TGI [9] [µM],TGI [10],GI50 [1],GI50 [2],GI50 [3],GI50 [4] [µM],GI50 [5],GI50 [6] [µM],GI50 [7],GI50 [9],GI50 [10] [µM]
O=c1ccc2ccccc2c2ccccc12,13.3 µM,3.99 µM,31.8,9.97,16.2 µM,5.76 µM,8.73,10.8 µM,4.66,20.3 µM,–,–,–,–,–,–,–,–,–
c1ccc2c(-c3csc(-c4c[nH]c5ccccc45)n3)c[nH]c2c1,> 89.1 µM,> 100 µM,> 100,47.6,> 100 µM,> 100 µM,> 100,> 79.1 µM,> 74.6,41.4 µM,–,–,–,–,–,–,–,–,–
c1n[nH]cc1C12C3C4C5C3C1C5C42 (stereo not drawn),> 100 µM,> 100 µM,> 100,> 100,> 100 µM,> 100 µM,> 100,> 100 µM,> 100,> 100 µM,–,–,–,–,–,–,–,–,–
CCC(=O)C(CCN1CCC(N2C(=O)C(CCC#N)c3ccccc32)CC1)(c1ccccc1)c1ccccc1 (stereo not drawn),26.1 µM,27 µM,31.7,22.2,29.7 µM,28 µM,32,31.7 µM,10.2,25 µM,–,–,–,–,–,–,–,–,–
C[C@H]1C[C@H]2[C@@H]3CCC4=CC(=O)C=C[C@]4(C)C3=CC[C@]2(C)[C@@]1(O)C(=O)CO,> 100 µM,> 100 µM,> 100,> 100,> 100 µM,> 100 µM,> 100,> 100 µM,> 100,> 100 µM,–,–,–,–,–,–,–,–,–
c1ccc(COC2C3COC(O3)C(OCc3ccccc3)C2OCc2ccccc2)cc1 (stereo not drawn),> 100 µM,> 100 µM,–,30.9,> 100 µM,> 100 µM,> 100,> 100 µM,25.4,56.5 µM,–,–,–,–,–,–,–,–,–
CSc1c(C#N)c(S)n(-c2ccc(Cl)cc2)c(=O)c1C#N,–,> 100 µM,> 100,> 100,> 100 µM,> 100 µM,> 100,> 100 µM,> 100,> 100 µM,–,–,–,–,–,–,–,–,–
O=C(O)Cc1cccc2c(=O)c3cccc([N+](=O)[O-])c3[nH]c12,> 100 µM,> 100 µM,> 100,> 100,> 100 µM,> 100 µM,> 100,> 100 µM,> 100,> 100 µM,–,–,–,–,–,–,–,–,–
O=C(/C=C(\Nc1ccccc1O)c1ccc(Br)cc1)C(Cl)(Cl)Cl,20 µM,32.9 µM,12.4,9.39,20.7 µM,13.9 µM,20.3,26.8 µM,36.7,33.7 µM,–,–,–,–,–,–,–,–,–
O=C(O)CCCc1ccccc1,738 µM and > 1000 µM,898 µM and > 1000 µM,> 1000,> 1000,932 µM and > 1000 µM,366 µM and > 1000 µM,> 1000,327 µM and > 1000 µM,> 1000,394 µM and > 1000 µM,370 µM and > 1000 µM,224 µM and > 1000 µM,322 µM and > 1000 µM,> 1000,349 µM and > 1000 µM,> 1000,537 µM and > 1000 µM,215 µM and 28.5 µM,> 1000
CCN1C[C@]2(C)CC[C@H](OC)C34C5C[C@@H]6[C@@H](OC)C[C@@](OC)(C5[C@H]6OCc5ccccc5)C(C13)[C@H](OC(C)=O)[C@@H]42 (stereo partly drawn),> 100 µM,> 100 µM,> 100,> 100,> 100 µM,> 100 µM,> 100,36 µM,> 100,> 100 µM,–,–,–,–,–,–,–,–,–
CNC(=O)N1N[C@H](c2ccccc2)[C@@H]1c1ccccc1,41.2 µM,44.3 µM,> 100,> 100,32 µM,45.2 µM,> 100,92.2 µM,58.4,71.1 µM,–,–,–,–,–,–,–,–,–
COC(=O)CCC(NC(=S)N/N=C(\C)c1cnccn1)C(=O)OC (stereo not drawn),> 100 µM,> 100 µM,> 100,38.6,> 100 µM,> 100 µM,> 100,> 100 µM,> 100,61 µM,–,–,–,–,–,–,–,–,–
C=C1C2CCC3(CCC4C5(C)CCCC4(C=[N+](CCO)C5)C3C2)C1O (stereo not drawn),> 100 µM,> 100 µM,> 100,> 100,> 100 µM,> 100 µM,> 100,> 100 µM,> 100,–,–,–,–,–,–,–,–,–,–
O=C(Nc1nc2ncn(CCO)c2c(=O)[nH]1)c1ccccc1,> 100 µM,> 100 µM,> 100,> 100,> 100 µM,> 100 µM,> 100,> 100 µM,> 100,–,–,–,–,–,–,–,–,–,–
CS(=O)(=O)C1(Br)S(=O)(=O)OCCOS1(=O)=O,> 100 µM,> 100 µM,> 100,> 100,> 100 µM,–,> 100,> 100 µM,> 100,> 100 µM,–,–,–,–,–,–,–,–,–
Nc1nc2ncn(CC(O)CO)c2c(=O)[nH]1 (stereo not drawn),> 100 µM,> 100 µM,> 100,> 100,> 100 µM,> 100 µM,> 100,> 100 µM,> 100,–,–,–,–,–,–,–,–,–,–
